This assay relates to BALB/c normal liver (BNL) cells. Kind of assay: Hydrogen peroxide cytotoxicity assay in BNL cells. In kind it is cell-based, BALB/c mouse. To be noted: then H2O2 2 hours, control 0.69. Here is the method: BALB/c normal liver (BNL) cells were purchased from Bioresources Collection and Research Center (Hsinchu, Taiwan). Cell lines were grown in DMEM (Dulbecco's modified Eagle's medium) with 50 IU/mL penicillin, 50 μg/mL streptomycin, 50 IU/mL amphotericin B and 10% fetal bovine serum. For cytotoxicity assays, cells (5×10^3 cells/well) were plated into 96-well culture plates and allowed to attach overnight. The medium was replaced with fresh medium (as control) or with various concentrations of AFEW, AFEW-1 or kinsenoside for 16 hours. The cells were then washed with PBS and further treated with various doses of hydrogen peroxide (0.125-4.00 μM) for 2 hours. After H2O2 cytotoxic treatment, the percentage of viable cells was determined using a CellTiter 96 Aqueous Non-Radioactive Cell Proliferation Assay kit (Promega, Madison, Wis., USA). Reagent solution (20 μt) was added to each well and incubated at 37° C. in humidified 5% CO2 for 1 hour. Then, the absorbance was measured at 490 nm using a 96-well plate reader (Multiskan Spectrum, Labsystem, Thermo Electron Corporation, Finland).
Data from in vivo experiments were treated by one-way analysis of variance and Dunnett's test was applied. The significance level was set at p[…]00.05. […]

SMILES strings stand for the structures. Marks after values point to notes of the source that are not given here.

In the case of `O=C1C[C@@H](OC2OC(CO)C(O)C(O)C2O)CO1` (stereo partly drawn) [Kinsenoside, 3-(R)-3-β-D-glucopyranosyloxybutanolide], the “H2O2 LD50 (95% confidence limits)” value runs as follows: (pretreatment 20 μg/mL for 16 hours) 0.81 (0.74-0.88)^a μM; (pretreatment 40 μg/mL for 16 hours) 1.17 (1.01-1.36)^a μM.
